The nature of series [1]: Permeability from basolateral to apical side in human Caco2 cells. It is filed as ADME, cell-based. Conditions: Caco-2, read-out: permeability.
Series [2] in a line: Inhibition of human adenovirus serotype 8 adenain protease expressed in Escherichia coli […] (DE3) using Ac-WLRGG*ARC(PT14)-NH2 as substrate by FLT assay. Set-up: species or system Human adenovirus 8.
A short description of series [3]: Permeability from apical to basolateral side in human Caco2 cells. Format: ADME, cell-based. Conditions: Caco-2, read-out: permeability. A general note: Passage across Caco-2 layers is used to estimate intestinal permeability.
The nature of series [4]: Inhibition of human adenovirus serotype 5 adenain protease expressed in Escherichia coli […] (DE3) using Ac-WLRGG*ARC(PT14)-NH2 as substrate by FLT assay. The arrangement: species or system Human adenovirus 5.
The subject of a further series is Human adenovirus 5. Put plainly: Antiviral activity against human adenovirus 5 infected in HEK293 cells assessed as reduction in viral induced cytopathogenicity incubated for 5 days by Celltiter-Glo luminescent cell viability assay. Format: functional, organism-based. The settings on record: Human mastadenovirus C, HEK293, 120 h. In general terms: Damage to the host cells serves as the signal in cytopathic effect assays.

The nature of series [5]: High throughput equilibrium solubility at pH 6.8. Format: physicochemical. Conditions: buffer.
Series [6] can be described thus: Inhibition of adenovirus adenain. The arrangement: species or system unidentified adenovirus.

pEC50, pIC50: −log10 of the molar value. In brackets after ≈: the same amount, converted by molar mass.

For orientation: pIC50 means the IC50 on a negative log10 scale, so that one unit is a factor of ten. The low end stands for a large IC50, the high end for a small IC50. In general, pEC50 refers to −log10 of the EC50, conventionally taken in molar units. The term solubility (thermodynamic) denotes the concentration in solution at equilibrium with solid. Turning to `CC[C@H](C(=O)N[C@H](C(=O)NCC(=O)NCC#N)C(C)(C)C)c1cc(Cl)cc(Cl)c1`, in series [1], the Papp B→A came to 12.2 ×10⁻⁶ cm/s. Further, the pIC50 was 7.70 in series [2] and 8.00 in series [4]. Moreover, in series [3], the Papp A→B was 7.3 ×10⁻⁶ cm/s. The pEC50 in the series on Human adenovirus 5 is 5.60. The thermodynamic solubility in series [5] was 5 µM (≈ 2.21 µg/mL).
For `CC[C@H](C)[C@H](NC(=O)[C@@H](O)c1cc(Cl)cc(Cl)c1)C(=O)NCc1ccnc(C#N)n1`, the Papp B→A in series [1] was found to be 11.3 ×10⁻⁶ cm/s. For the same molecule, the figures for the pIC50 in series [2] and in series [4] were 7.70 and 8.10, respectively. The Papp A→B in series [3] worked out at 18.3 ×10⁻⁶ cm/s. Besides, the pEC50 with Human adenovirus 5 was 5.14. Also, the thermodynamic solubility in series [5] stood at 236 µM (≈ 106 µg/mL).
As to `COC[C@H](NC(=O)Cc1cc(Cl)cc(Cl)c1)C(=O)NCc1ccnc(C#N)n1`, in series [1], the Papp B→A was 14.8 ×10⁻⁶ cm/s. Also, the pIC50 is 8.40 in series [2] and 8.70 in series [4]. In addition, the Papp A→B in series [3] turned out to be 23.2 ×10⁻⁶ cm/s. In addition, the pEC50 in the series on Human adenovirus 5 is 5.49. This molecule returned a thermodynamic solubility in series [5] of 52 µM (≈ 22 µg/mL).
As to `C[C@@H](O)[C@H](NC(=O)Cc1cc(Cl)cc(Cl)c1)C(=O)NCc1ccnc(C#N)n1`, in series [1], the Papp B→A was 14.1 ×10⁻⁶ cm/s. Also, the pIC50 in series [2] is 8.52; in series [4] it was 8.70. The Papp A→B in series [3] was 12.2 ×10⁻⁶ cm/s. For the same molecule, the pEC50 in the series on Human adenovirus 5 was 5.92. In series [5], this molecule gave a solubility (thermodynamic) of 556 µM (≈ 235 µg/mL).
In the case of `CS(=O)(=O)N[C@H](C(=O)N[C@@H](Cc1ccccc1)C(=O)NCC(=O)NCC#N)c1cccc(Cl)c1`, in series [1], the Papp B→A turned out to be 7.5 ×10⁻⁶ cm/s. The pIC50 is 7.40 in series [2], 7.40 in series [6] and 7.52 in series [4]. The Papp A→B in series [3] is 1.2 ×10⁻⁶ cm/s. The molecule also had a thermodynamic solubility in series [5] of 170 µM (≈ 86 µg/mL).
Turning to `N#Cc1ncc(C(=O)NCc2ccccc2)cn1`, in series [6], the pIC50 was 4.62.
On to `N#CCNC(=O)CNC(=O)[C@H](Cc1ccccc1)NC(=O)Cc1cccc(Cl)c1`, for which the Papp B→A in series [1] stood at 7.4 ×10⁻⁶ cm/s. The pIC50 is 6.42 in series [2] and 6.55 in series [4]. In series [3], the Papp A→B was 1.2 ×10⁻⁶ cm/s. Further, the solubility (thermodynamic) in series [5] was 150 µM (≈ 61.9 µg/mL).
Regarding `N#CCNC(=O)CNC(=O)[C@H](Cc1ccccc1)NC(=O)[C@@H](O)c1cccc(Cl)c1`, the Papp B→A in series [1] amounted to 3.2 ×10⁻⁶ cm/s. This molecule also had a pIC50 in series [2] of 7.15. Besides, the Papp A→B in series [3] is 2.2 ×10⁻⁶ cm/s.
Consider `N#CCNC(=O)CNC(=O)[C@H](Cc1ccccc1)NC(=O)Cc1cc(Cl)cc(Cl)c1`, for which the Papp B→A in series [1] turned out to be 8.1 ×10⁻⁶ cm/s. Moreover, the pIC50 was 7.15 in series [2] and 7.40 in series [4]. Besides, the Papp A→B in series [3] came out at 1.2 ×10⁻⁶ cm/s. The molecule further registered a thermodynamic solubility in series [5] of 30 µM (≈ 13.4 µg/mL).
For `N#CCNC(=O)CNC(=O)[C@H](CN)NC(=O)Cc1cc(Cl)cc(Cl)c1`, the Papp B→A in series [1] is 1.2 ×10⁻⁶ cm/s. The negative logarithm of the IC50 (pIC50) was 7.10 in series [2] and 7.40 in series [4]. For the same molecule, the Papp A→B in series [3] is 1 ×10⁻⁶ cm/s. In addition, in series [5], the thermodynamic solubility worked out at 891 µM (≈ 344 µg/mL).
Regarding `C[C@@H](O)[C@H](NC(=O)Cc1cc(Cl)cc(Cl)c1)C(=O)NCC(=O)NCC#N`, the figures for the pIC50 in series [2] and in series [4] were 7.10 and 7.52, respectively. The solubility (thermodynamic) in series [5] amounted to 121 µM (≈ 48.6 µg/mL).
`CC(C)(C)[C@H](NC(=O)Cc1cc(Cl)cc(Cl)c1)C(=O)NCC(=O)NCC#N`: the Papp B→A in series [1] is 23.8 ×10⁻⁶ cm/s. The pIC50 was 7.10 in series [2] and 7.40 in series [4]. In addition, in series [3], the Papp A→B was 5.4 ×10⁻⁶ cm/s. The molecule further yielded a solubility (thermodynamic) in series [5] of 85 µM (≈ 35.1 µg/mL).
In the case of `CC[C@H](C)[C@H](NC(=O)[C@@H](O)c1cc(Cl)cc(Cl)c1)C(=O)NCC(=O)NCC#N`, the Papp B→A in series [1] is 28 ×10⁻⁶ cm/s. Also, the pIC50 in series [2] and in series [4] was 7.30 each time. In addition, the Papp A→B in series [3] is 3 ×10⁻⁶ cm/s.
As to `CC[C@H](C(=O)N[C@H](C(=O)NCC(=O)NCC#N)[C@@H](C)O)c1cc(Cl)cc(Cl)c1`, the Papp B→A in series [1] worked out at 18 ×10⁻⁶ cm/s. For the same molecule, the values for the pIC50 in series [2] and in series [4] were 7.52 and 8.30, respectively. For the same molecule, the Papp A→B in series [3] turned out to be 2.6 ×10⁻⁶ cm/s. This molecule showed a solubility (thermodynamic) in series [5] of 1000 µM (≈ 429 µg/mL).
Consider `CC[C@H](C)[C@H](NC(=O)C(c1cc(Cl)cc(Cl)c1)N(C)C)C(=O)NCc1ccnc(C#N)n1` (mixture of isomers), for which the Papp B→A in series [1] worked out at 10.1 ×10⁻⁶ cm/s. Besides, the pIC50 in series [2] is 7.22; in series [4], 7.70. For the same molecule, in series [3], the Papp A→B amounted to 17.8 ×10⁻⁶ cm/s. Moreover, the pEC50 in the series with Human adenovirus 5 is 5.17. This molecule yielded a thermodynamic solubility in series [5] of 61 µM.
`CC(C(=O)N[C@@H](Cc1ccccc1)C(=O)NCC(=O)NCC#N)c1cc(Cl)cc(Cl)c1` (mixture of isomers): the pIC50 was 7.52 in series [2] and 8.22 in series [4]. The thermodynamic solubility in series [5] is 50 µM.
As for `N#CCNC(=O)CNC(=O)C(Cc1ccccn1)NC(=O)Cc1cc(Cl)cc(Cl)c1` (racemic), the Papp B→A in series [1] came out at 15 ×10⁻⁶ cm/s. For the same molecule, the results for the pIC50 in series [2] and in series [4] were 6.44 and 6.85, respectively. For the same molecule, the Papp A→B in series [3] stood at 0.7 ×10⁻⁶ cm/s. The same molecule showed a thermodynamic solubility in series [5] of 111 µM (≈ 49.8 µg/mL).

Values taken from ChEMBL document CHEMBL3351504, “Discovery and structure-based optimization of adenain inhibitors” (ACS Med Chem Lett, 2014).
